# Data from patent publication US20250051327A1, “MALT-1 MODULATORS” (EXSCIENTIA AI LIMITED, priority 2020, published 2025).
# Test system: IL-2 secretion by human effector memory T cells (TEM)
# Experiment: Effector memory T cells IL-2 release assay
# Type: cell-based
# Settings: T-cell; human CD4+ effector memory T cells, CD3/CD28 bead stimulation, 24 h; read-out: CD4TC IL2 IC50
# Experimental: Effector Memory T Cells IL-2 Release Assay
# Test compound-mediated inhibition of NFκB signalling in T cells was assessed by quantification of the IL-2 secretion by human effector memory T cells (TEM) upon treatment and stimulation. Human TEM cells were isolated from buffy coats of healthy donors obtained from the French blood bank. First, peripheral blood mononuclear cells (PBMC) were purified from buffy coats diluted 1:1 with DPBS (Gibco, cat #14190-094) by Pancoll (PAN BIOTECH, cat #P04-60500) density gradient centrifugation at 400×g for 20 minutes. TEM cells were further enriched by negative immuno-magnetic cell sorting using a human CD4+ Effector Memory T Cell Isolation Kit (Miltenyi, cat #130-094-125) according to the manufacturer's instructions. Aliquots of 3×10E6 purified TEM cells were kept frozen in Cryo-SFM medium (PromoCell, cat #C-29912) in gas phase nitrogen until used. Cell purity was verified by flow cytometry analysis of 200 000 PFA-fixed cells previously labelled with monoclonal antibodies anti-CD4-PerCP-Cy5.5 (BD Pharmigen, cat #332772), anti-CD8-V500 (BD Biosciences, cat #561617), anti-CD14-Pacific Blue (Biolegend, cat #325616), anti-CD45 RA-FITC (Biolegend, cat #304106) and anti-CCR7-APC (in CD4+ Effector Memory T Cell Isolation Kit, Miltenyi, cat #130-094-125).
# TEM cells were resuspended in complete RPMI medium composed of: RPMI 1640 (Gibco, cat #31870-025), 10% heat inactivated fetal bovine serum (Sigma, cat #F7524), 2 mM GlutaMAX (Gibco, cat #35050-038), 1 mM sodium pyruvate 100× (Gibco, cat #11360-039), 1% MEM non-essential amino acids solution (Gibco, cat #11140-035) and 100 U/mL penicillin, 100 μg/mL streptomycin (Sigma-Aldrich, cat #11074440001). 5,000 cells per well were plated onto flat clear bottom 384 well plates (Corning, cat #3770). 5,000 Dynabeads Human T-Activator CD3/CD28 (Gibco, cat #11132D) were added to each well for cell stimulation. Finally, 10 doses of test compound, originally prepared in DMSO by serial semi-log step dilution, were also added to cells in triplicate wells. Final DMSO concentration in wells was 0.1% in a total volume of 100 μL complete medium. Plates were incubated for 24 h at 37° C. in 5% CO2 atmosphere. After incubation, cell suspensions were centrifuged at 400×g and culture supernatants were recovered and stored at −80° C. Cell viability was assessed by flow cytometry after staining the cells with Fixable Viability Dye eFluor 780 (Invitrogen, cat #65-0865-14). IL-2 levels were determined in cell supernatants using an HTRF human IL-2 detection kit (Cisbio, cat #62HIL02PEH). IL-2 data at the different compound doses were fitted to a 4-parameter logistic curve to determine IC50 values, corresponding to the compound concentration leading to 50% reduction of the maximal IL-2 levels observed in each experiment. Viability data were analysed similarly to exclude cytotoxicity as a cause of IL-2 decrease (see Table 1).
row,IC50,Molecule
1,180 nM,"COc1ccc2ncc(Nc3ccc([C@H](N(C)C(=O)C4CCS(=O)(=O)CC4)C(F)(F)F)cn3)c([C@@H](C)OC)c2n1 (relative stereo) [CPD0019006, N-methyl-1,1-dioxo-N-[(1S)-2,2,2-trifluoro-1-[6-({6-methoxy-4-[(1 rel S)-1-methoxyethyl]-1,5-naphthyridin-3-yl}amino)pyridin-3-yl]ethyl]-1λ^6-thiane-4-carboxamide]"
2,20 nM,"COc1ccc2ncc(Nc3ccc([C@H](N(C)C(=O)C4CCS(=O)(=O)CC4)C(F)(F)F)cc3)c([C@H](C)OC)c2n1 (relative stereo) [CPD0019170, N-methyl-1,1-dioxo-N-[(1S)-2,2,2-trifluoro-1-[4-({6-methoxy-4-[(1 rel S)-1-methoxyethyl]-1,5-naphthyridin-3-yl}amino)phenyl]ethyl]-1λ^6-thiane-4-carboxamide]"
3,110 nM,"COc1ccc2ncc(Nc3ccc([C@H](N(C)C(=O)C4CCS(=O)(=O)CC4)C(F)(F)F)cc3)c([C@@H](C)OC)c2n1 (relative stereo) [CPD0019171, N-methyl-1,1-dioxo-N-[(1S)-2,2,2-trifluoro-1-[4-({6-methoxy-4-[(1 rel R)-1-methoxyethyl]-1,5-naphthyridin-3-yl}amino)phenyl]ethyl]-1λ^6-thiane-4-carboxamide]"
4,80 nM,"COc1ccc2ncc(Nc3ccc([C@H](N(C)C(=O)C4CCS(=O)(=O)CC4)C(F)(F)F)cc3)c([C@H]3CCCO3)c2n1 (relative stereo) [CPD0074043, N-methyl-1,1-dioxo-N-[(1S)-2,2,2-trifluoro-1-[4-[6-methoxy-4-[(2 rel-R)-tetrahydrofuran-2-yl]-1,5-naphthyridin-3-yl]amino]phenyl]ethyl]thiane-4-carboxamide]"

# The next lines start with the molecule.
row,Molecule,IC50
1,"COc1ccc2ncc(Nc3ccc([C@H](N(C)C(=O)[C@H]4CC[S@@+]([O-])CC4)C(F)(F)F)cc3)c([C@H](C)OC)c2n1 (relative stereo) [CPD0072935, (1rel-s,4rel-s)-N-methyl-1-oxo-N-[(1S)-2,2,2-trifluoro-1-[4-({6-methoxy-4-[(1 rel-S)-1-methoxyethyl]-1,5-naphthyridin-3-yl}amino)phenyl]ethyl]-1λ^4-thiane-4-carboxamide]",34 nM
2,"COc1ccc2ncc(Nc3ccc([C@H](N(C)C(=O)[C@H]4CC[S@+]([O-])CC4)C(F)(F)F)cc3)c([C@H](C)OC)c2n1 (relative stereo) [CPD0072936, (1rel-r,4rel-r)-N-methyl-1-oxo-N-[(1S)-2,2,2-trifluoro-1-[4-({6-methoxy-4-[(1 rel-S)-1-methoxyethyl]-1,5-naphthyridin-3-yl}amino)phenyl]ethyl]-1λ^4-thiane-4-carboxamide]",17 nM
3,"COc1ccc2ncc(Nc3ccc([C@H](N(C)C(=O)[C@@H]4CNC(=O)C4)C(F)(F)F)cc3)c([C@H](C)OC)c2n1 (relative stereo) [CPD0074550, (3 rel S)-N-methyl-5-oxo-N-[(1S)-2,2,2-trifluoro-1-[4-[6-methoxy-4-[(1 rel S)-1-methoxyethyl]-1,5-naphthyridin-3-yl]amino]phenyl]ethyl]pyrrolidine-3-carboxamide]",41 nM

# Target: Recombinant human MALT-1 (amino acids 340-824) (Homo sapiens (Human), UniProt Q9UDY8)
# Experiment: MALT-1 inhibition assay (fluorogenic substrate Ac-LRSR-Rh110-DP)
# Type: biochemical
# Settings: recombinant human MALT-1, substrate Ac-LRSR-Rh110-DP
# Experimental: MALT-1 paracaspase activity was measured using the fluorogenic substrate Ac-LRSR-Rh110-DP (purchased from Biosantan GmbH). […] The reaction was initiated by addition of substrate. Final concentrations of MALT-1 and substrate were 3 nM and 10 μM respectively. Reactions were incubated in the dark for 60 minutes at 25° C. […] Percent inhibition values were calculated from relative fluorescence units at different doses and fitted to a 4-parameter logistic curve to determine IC50 values (see Table 1).
# Sequence of Recombinant human MALT-1 (amino acids 340-824) (Q9UDY8 340-824): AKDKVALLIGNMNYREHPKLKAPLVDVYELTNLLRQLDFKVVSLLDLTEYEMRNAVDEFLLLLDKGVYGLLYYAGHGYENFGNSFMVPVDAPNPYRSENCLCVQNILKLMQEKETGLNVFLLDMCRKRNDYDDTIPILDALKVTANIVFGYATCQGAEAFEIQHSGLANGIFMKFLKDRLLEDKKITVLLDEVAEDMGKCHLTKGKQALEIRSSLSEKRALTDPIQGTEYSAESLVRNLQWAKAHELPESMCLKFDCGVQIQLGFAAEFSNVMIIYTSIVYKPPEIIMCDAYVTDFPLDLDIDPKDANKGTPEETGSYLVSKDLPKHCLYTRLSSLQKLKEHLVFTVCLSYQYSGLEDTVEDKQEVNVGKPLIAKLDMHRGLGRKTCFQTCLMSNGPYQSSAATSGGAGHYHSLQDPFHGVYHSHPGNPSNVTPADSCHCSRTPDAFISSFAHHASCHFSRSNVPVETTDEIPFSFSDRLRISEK
row,IC50,Molecule
1,109 nM,"COc1ccc2ncc(Nc3ccc([C@H](N(C)C(=O)C4CCS(=O)(=O)CC4)C(F)(F)F)cc3)c(C3(F)COC3)c2n1 [CPD0076413, N-methyl-1,1-dioxo-N-[(1S)-2,2,2-trifluoro-1-[4-[[4-(3-fluorooxetan-3-yl)-6-methoxy-1,5-naphthyridin-3-yl]amino]phenyl]ethyl]thiane-4-carboxamide]"
2,111 nM,COc1ccc2ncc(Nc3ccc([C@H](N(C)C(=O)C4CCN(C(C)=O)CC4)C(F)(F)F)cc3)c([C@H]3CCOC3)c2n1 [CPD0082479]
3,77 nM,COc1ccc2ncc(Nc3ccc([C@H](N(C)C(=O)C4CCN(C(C)=O)CC4)C(F)(F)F)cc3)c([C@@H]3CCOC3)c2n1 [CPD0082480]
4,73 nM,COc1ccc2ncc(Nc3ccc([C@H](N(C)C(=O)C4CCN(C(=O)CO)CC4)C(F)(F)F)cc3)c([C@H]3CCOC3)c2n1 [CPD0082481]
5,72 nM,COc1ccc2ncc(Nc3ccc([C@H](N(C)C(=O)C4CCN(C(=O)CO)CC4)C(F)(F)F)cc3)c([C@@H]3CCOC3)c2n1 [CPD0082482]

# The next lines start with the molecule.
row,Molecule,IC50
1,"CC(=O)N1CCC(C(=O)N(C)[C@@H](c2ccc(N3CCCc4c3cnc3cc(F)nn43)cc2)C(F)(F)F)CC1 [CPD0074050, 1-acetyl-N-methyl-N-[(1S)-2,2,2-trifluoro-1-(4-{4-fluoro-2,3,7,10-tetraazatricyclo[7.4.0.0^2,6]trideca-1(9),3,5,7-tetraen-10-yl}phenyl)ethyl]piperidine-4-carboxamide]",85 nM
2,"CC(=O)N1CCC(C(=O)N(C)[C@@H](c2ccc(N3CCCc4c3cnc3cc(Cl)nn43)nc2)C(F)(F)F)CC1 [CPD0074051, 1-acetyl-N-[(1S)-1-[6-(4-chloro-2,3,7,10-tetrazatricyclo[7.4.0.0^2,6]trideca-1(9),3,5,7-tetraen-10-yl)-3-pyridyl]-2,2,2-trifluoro-ethyl]-N-methyl-piperidine-4-carboxamide]",154 nM
3,CN(C(=O)[C@H]1C[C@@H](O)C1)[C@@H](c1ccc(N2CCCc3c2cnc2cc(Cl)nn32)cc1)C(F)(F)F [CPD0074538],57 nM
4,C[C@@H]1CCN(c2ccc([C@H](N(C)C(=O)[C@@H]3CNC(=O)C3)C(F)(F)F)cc2)c2cnc3cc(Cl)nn3c21 [CPD0074548],46 nM
5,C[C@@H]1CCN(c2ccc([C@H](N(C)C(=O)[C@H]3CNC(=O)C3)C(F)(F)F)cc2)c2cnc3cc(Cl)nn3c21 [CPD0074560],43 nM
6,C[C@H]1CCN(c2ccc([C@H](N(C)C(=O)[C@@H]3CNC(=O)C3)C(F)(F)F)cc2)c2cnc3cc(Cl)nn3c21 [CPD0074569],30 nM
7,"CN(C(=O)[C@H]1CC(=O)N1)[C@@H](c1ccc(N2CCCc3c2cnc2cc(Cl)nn32)cc1)C(F)(F)F [CPD0075869, (2R)-N-[(1S)-1-[4-(4-chloro-2,3,7,10-tetrazatricyclo[7.4.0.0^2,6]trideca-1(9),3,5,7-tetraen-10-yl)phenyl]-2,2,2-trifluoro-ethyl]-N-methyl-4-oxo-azetidine-2-carboxamide]",75 nM
8,CN(C(=O)[C@H]1CCN(C(=O)CO)C1)[C@@H](c1ccc(N2CCCc3c2cnc2cc(F)nn32)cc1)C(F)(F)F [CPD0075878],111 nM
9,CN(C(=O)[C@@H]1CCN(C(=O)CO)C1)[C@@H](c1ccc(N2CCCc3c2cnc2cc(F)nn32)cc1)C(F)(F)F [CPD0075879],154 nM
10,"CO[C@@H](C)c1c(Nc2ccc([C@H](N(C)C(=O)[C@H]3CCC(=O)N3)C(F)(F)F)cc2)cnn2cc(Cl)nc12 [CPD0082469, (2R)-N-[(1S)-1-[4-[[2-chloro-8-[(1 S)-1-methoxyethyl]imidazo[1,2-b]pyridazin-7-yl]amino]phenyl]-2,2,2-trifluoro-ethyl]-N-methyl-5-oxo-pyrrolidine-2-carboxamide]",45 nM
11,"CO[C@@H](C)c1c(Nc2ccc([C@H](N(C)C(=O)C3CCN(C(=O)CO)CC3)C(F)(F)F)cc2)cnn2cc(Cl)nc12 [CPD0084141, N-[(1S)-1-[4-[[2-chloro-8-[(1S)-1-methoxyethyl]imidazo[1,2-b]pyridazin-7-yl]amino]phenyl]-2,2,2-trifluoro-ethyl]-1-(2-hydroxyacetyl)-N-methyl-piperidine-4-carboxamide]",43 nM
12,CO[C@@H](C)c1c(Nc2ccc([C@H](N(C)C(=O)C3CC4(C3)CS(=O)(=O)C4)C(F)(F)F)cc2)cnn2cc(Cl)nc12 [CPD0084934],54 nM
13,"N-[(1S)-1-[4-[[2-chloro-8-[(1S)-1-methoxyethyl]imidazo[1,2-b]pyridazin-7-yl]amino]phenyl]-2,2,2-trifluoro-ethyl]-N-methyl-1,1-dioxo-thiane-4-carboxamide [CPD0084508]",182 nM
